Where two headings read alike, the source gives them in different places. Positions of bridges follow the written chain, without caps; N, C: chain ends. Residues, ends and D or L forms follow the SMILES beside them.

The values below come from article PMC10499988 (Nature Communications, 2023).

In data set [1] the target is T1, HSA (Homo sapiens, UniProt P02768). Also noted: purchased Sigma-Aldrich A4327-1G. To be noted: cited from earlier work.
Data set [2] is described as follows: In vivo pharmacokinetic experiment, plasma LC-MS after tail vein injection. The procedure:
All the procedures and experiments involving animals were carried out using a protocol approved by the Health Sciences Laboratory Animal Services (HSLAS), University of Alberta. The protocol was approved as per the Canadian Council on Animal Care (CCAC) guidelines. Approved protocol # AUP00002467. All mice (Strain: C57BL/6J) were maintained in pathogen-free conditions at the University of Alberta breeding facility. Housed on ventilated caging (Tecniplast); Temperature: 21 +/− 2 degrees Celsius; Humidity: 30–70% rH; Light Cycle: 12 L:12D. […] Peptide mixtures of 100 µM were prepared in PBS. Mice were administered with 200 µL of the peptide mixture solution with tail veil injection. A series of 6 blood samples were collected at time points from 2 min up to 240 min (Fig. 6B: 2 min, 60 min; Fig. 6C–E: 2 min, 60 min, 180 min; Supplementary Fig. 32: 2 min, 5 min, 30 min, 60 min, 120 min, 240 min). Samples were collected in tubes that contained sodium citrate as an anticoagulant and then centrifuged at 5 min at 2000 × g to collect the blood plasma. 10 µL of plasma portion were transferred into a tube containing 40 µL of 8:2 acetonitrile/water to precipitate proteins. The samples were centrifuged at 17,000 × g for 10 min at 4 °C. Supernatants were then transferred to new tubes and subjected to analysis by LC-MS. […]
assays. The fluorescent-labeled peptides w ere dissolved to 10 m M in D M SO and diluted to 20 µM in DM SO for use. Each well contained 19 µL of HSA in PBSwith the range of final […]
1 µL of 20 µM of fluorescentlly labeled peptide was added to the wells to a final concentration of 1 µM . Each measuring point was made in duplicate. Before measuring, the plate was centrifuged 500×g for 5 min at RT, incubated for 10 m in, and shaken for 5 m in the dark. The m easurem ent w as perform ed in Cytation5 Cell Imaging Multi-Mode Reader from BioTek. The data were analyzed and processed in […]
26. […]
prepared with the identical buffer as the peptides to a final concentration of 40 µM . […] The data were evaluated using the MicroCalTM OriginTM Version 5.0. […]

Data set [3] addresses T1, HSA. To be noted: 19F NMR competition.
Data set [4] addresses Serum albumin (Homo sapiens) (UniProt P02768). To be noted: cited from earlier work.
Data set [5] in a line: Reactivity of macrocycles with thiol nucleophiles. It is filed as physicochemical. The note with it: several hours, basic pH. From the text:
6-10 Å and the PM F of the pocket 1 starts to deviate from the others, we performed hydrogen bond interaction searches with 3.5 Å cut off distance between a donor and an acceptor at intermediate regime from umbrella sampling simulations. These findings […]
of the peptide to the pocket 1 binding site of albumin. This was supported by the fact that […]
simulation time (Supplementary Fig. 27). O verall, these findings provide im portant insights into the m echanism of binding betw een the peptide and album in, w hich could inform the design of future albumin-binding peptides with improved affinity and specificity. The concurrence of the docking results and the experimental binding data provides strong evidence that our simulations accurately predicted the binding for 14c.
Supplementary Fig. 7. […] The OFS-SWCRC […]
peptide was added with one equivalent of GSH in 60% acetonitrile in 50 mM Tris-HCl at pH 8.5.
The reaction was monitored by LC–MS.
Supplementary Fig. 8. Stability of the PFS stapled peptides (A ) Results of the PFS-SW CRC mixed with 2-mercaptoethanol and analyzed by LC–MS after 1 hour and 3 weeks. The PFS-SW CRC macrocycle was combined with 1 equivalent of 2-mercaptoethanol in 60% acetonitrile and 50 mM Tris-HCl at pH 8.5. The mixture was monitored by LC–MS. […]
spectrum of 1 mg of PFS- […] mixed with 1 mg of HSA over 19 days in PBS. The mixture was monitored by 19F NMR in PBS, 10% D2O

Where [6] appears, read: C57BL/6J, mouse, plasma, iv, 200 uL of 100 uM peptide mixture.

Regarding `CC[C@H](C)[C@H](NC(=O)[C@H](CC(C)C)NC(=O)[C@H](CCCNC(=N)N)NC(C)=O)C(=O)N[C@@H](CCC(=O)O)C(=O)N[C@@H](CC(=O)O)C(=O)N[C@H](C(=O)N[C@H]1CSSC[C@@H](C(=O)N[C@@H](CC(C)C)C(=O)N[C@@H](Cc2c[nH]c3ccccc23)C(=O)N[C@@H](CCC(=O)O)C(=O)N[C@@H](CC(=O)O)C(=O)N[C@@H](CC(=O)O)C(N)=O)NC(=O)CNC(=O)[C@H](Cc2c[nH]c3ccccc23)NC(=O)[C@H](CCCNC(=N)N)NC(=O)[C@@H]2CCCN2C(=O)[C@H](CC(C)C)NC1=O)[C@@H](C)CC` [SA-21] (Ac-RLIEDICLPRWGCLWEDD-NH2; disulfide 7-13), the Kd at HSA [1] (Discussion, reference not given, read-out: affinity of benchmark) is 0.6 µM. For the same compound, at HSA [1] (read-out: binding affinity to HSA), the Kd is roughly 0.5 µM. Also, in data set [2] (setting [6]), the level at 2 min worked out at 40 µg/mL and the level at 1 h amounted to 30 µg/mL. Moreover, the “plasma concentration in 3 h study, in words” value in data set [2] (mice, tail vein, 2, 60, 180 min) is on record as “indistinguishable”.

Regarding `NC(=O)N1c2ccccc2C=Cc2ccccc21` [carbamazepine], the “influence on binding of 14c to HSA” value at HSA [3] is “none of these drugs influenced the binding of 14c”.

Regarding FITC-EYEYKpalmESE-NH2, the Kd in data set [4] was 0.039 µM.

Regarding OFS-SWCRC, in data set [5], the “reactivity with glutathione (GSH)” value is given as “reacted with GSH over 3 hours”.
